Source: US10308620B2, “Muscarinic M1 receptor positive allosteric modulators” (SUVEN LIFE SCIENCES LIMITED, priority 2015, dated 2019)

Legend:
rats = experiment: Contextual fear conditioning task (scopolamine induced memory deficit); assay type: in vivo, rat; conditions: scopolamine 0.3 mg/kg, s.c.; FIG. 3
Experimental: Contextual Fear Conditioning Task
Experiment was carried out over a period of two days. On day 1, rats were placed in the operant behavior chamber and allowed to acclimatize for 2 minutes. Rats received an unavoidable foot shock (unconditioned stimulus (US): electric shock of 0.5-0.7 mA for 3 sec). Following a 1 minute interval, shocks were repeated to deliver a total of three US. Rats were administered with vehicle or test compound post training. Scopolamine (0.3 mg/kg, s.c.) was administered 120 minutes after training.
On day 2, rats were placed in the operant behavior chamber and total freezing time was scored for a period of 5 minutes.

[1] = Rodent brain penetration study; assay type: in vivo; conditions: rat, oral, 3 mg/kg, p.o., male Wistar rats, read-out: Single dose Rat Brain Penetration (Cb/Cp)
Experimental: Rodent Brain Penetration Study
Male Wistar rats (260±40 grams) were used as experimental animals. Three animals were housed in each cage. Animals were given water and food ad libitum throughout the experiment and maintained on a 12 hours light/dark cycle.
Brain penetration was determined in discrete manner in rats. One day prior to dosing day, male Wistar rats were acclimatized and randomly grouped according to their weight. At each time point (0.50, 1 and 2 hours) n=3 animals were used.
The test compounds were suitably preformulated and administered orally at (free base equivalent) 3 mg/kg. Blood samples were removed via cardiac puncture by using isoflurane anesthesia. The animals were sacrificed to collect brain tissue. Plasma was separated and brain samples were homogenized and stored frozen at −20° C. until analysis. The concentrations of the test compounds in plasma and brain were determined using LC-MS/MS method.
The test compounds were quantified in plasma and brain homogenate by qualified LC-MS/MS method using suitable extraction technique. The test compounds were quantified in the calibration range of 1-500 ng/mL in plasma and brain homogenate. Study samples were analyzed using calibration samples in the batch and quality control samples spread across the batch. Extent of brain-plasma ratio was calculated (Cb/Cp).

[2] = test system: soluble amyloid precursor protein α (sAPPα); experiment: Cortical sAPPα levels in mice brain (ELISA); assay type: in vivo; conditions: male C57BL/6J mice, 10 mg/kg, i.p., sixty minutes post treatment; FIG. 4
Experimental: (§1) Modulation of Soluble Amyloid Precursor Protein α (sAPPα) Levels in Cortex
Estimation of Cortical sAPPα Levels in Mice Brain
Male C57BL/6J mice ([…]) were randomly divided (n=8 group) into five groups. Control group of mice were intraperitoneally (i.p.) administered with vehicle (99.75% of 0.25% HEC HHX+0.25% tween 80) and the treatment group of mice received a single intraperitoneal injection of example 18 (dose volume of 10 mL/kg). Mice were sacrificed by cervical dislocation at 60 minutes after administration of test compound. Brains were quickly isolated and the cortex was dissected at −20° C. The cortex was immediately kept on a dry ice and weighed before being stored at −80° C. until quantification of sAPPα using Enzyme-linked immunosorbent assay (ELISA).
• 1. […]
(§2) To investigate the role of an acute treatment of test compound on sAPPα levels, the expression of this protein was measured in homogenates obtained from the cortex of treated and untreated rats by employing ELISA assay. […]
(§3) Statistical analyses were performed using the Graph Pad Prism (Version 4). Results are expressed as Mean±SEM levels of sAPPα expressed as percentage of control values (rats treated with vehicle). Statistical significance after treatment was assessed using One-Way ANOVA followed by Dunnett's post test and the significance level was set below p value less than 0.05.

[3] = test system: soluble amyloid precursor protein α (sAPPα); experiment: Cortical sAPPα levels in rat brain (ELISA); assay type: in vivo; conditions: male Wistar rats, 10 mg/kg, i.p., sixty minutes post treatment; FIG. 5
Experimental: as §1
Estimation of Cortical sAPPα Levels in Rat Brain
Male Wistar rats (250±40 grams) were randomly divided (n=8 group) into different treatment groups. Control group of rats were intraperitoneally (i.p.) administered with vehicle (99.75% of 0.25% HEC HHX+0.25% tween 80). Rats from treatment groups received a single intraperitoneal injection of test compound (dose volume of 2 mL/kg). Rats were sacrificed by cervical dislocation at 60 minutes after administration of test compound. Brains were quickly isolated and the cortex was dissected at −20° C. The cortex was immediately kept on a dry ice and weighed before being stored at −80° C. until quantification of sAPPα using Enzyme-linked immunosorbent assay (ELISA).
• 1. […]
as §2, §3

O=C(N[C@H]1CCCC[C@@H]1O)C1=CN(Cc2cccc(F)c2F)c2ccccc2O1 [Example 18, N-(cis-1S, 2S-2-Hydroxycyclohexyl)-4-(2,3-difluorobenzyl)-4H-benzo[1,4]oxazine-2-carboxamide]
Effect on scopolamine induced memory deficit (freezing time) (rats): reversed the scopolamine induced memory deficit | Kp [1]: 2.27 ± 0.64 | mean increase in cortical sAPPα levels [2]: 38% | mean maximum increase in cortical sAPPα levels [3]: 26%
